Data: patent US6221865A, “Inhibitors of protein isoprenyl transferases” (priority 1998, dated 2001)
Counter-ions that a name gives are not always drawn.

The compounds below were run against T1, protein farnesyltransferase (Rattus norvegicus, UniProt Q02293+Q04631) (assay: Inhibition of farnesyltransferase (scintillation proximity assay, rat brain enzyme, biotin-K Ras B fragment substrate)). Conditions: 1 × 10^-5 M (Table 1).
T1 construct: The enzyme is purified according to Reiss, Y., et al., Cell, 62: 81-88 (1990), utilizing steps one through three; from tissue; host or cells: rat brain
T1 sequence (Q02293 whole entry, the tested form may be a part, one chain of several): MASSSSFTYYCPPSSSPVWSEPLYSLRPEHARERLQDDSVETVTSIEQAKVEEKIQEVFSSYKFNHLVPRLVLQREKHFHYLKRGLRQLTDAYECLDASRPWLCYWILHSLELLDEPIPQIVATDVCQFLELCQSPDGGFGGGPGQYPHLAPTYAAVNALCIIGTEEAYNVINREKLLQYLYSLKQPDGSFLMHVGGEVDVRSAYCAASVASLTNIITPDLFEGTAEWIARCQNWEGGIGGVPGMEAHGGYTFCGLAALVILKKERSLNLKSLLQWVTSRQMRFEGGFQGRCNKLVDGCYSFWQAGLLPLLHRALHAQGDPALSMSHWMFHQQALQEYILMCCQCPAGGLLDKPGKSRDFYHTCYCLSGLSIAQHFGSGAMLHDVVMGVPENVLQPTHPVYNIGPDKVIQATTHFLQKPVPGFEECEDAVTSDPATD
Format: biochemical
Text: The ability of the compounds of the invention to inhibit protein farnesyltransferase or protein geranylgeranyltransferase can be measured according to the method of Moores, et al., J. Biol. Chem. 266: 14603 (1991) or the method of Vogt, et al., J. Biol. Chem. 270:660-664 (1995). In addition, procedures for determination of the inhibition of farnesylation of the oncogene protein Ras are described by Goldstein, et al., J. Biol. Chem., 266:15575-15578 (1991) and by Singh in U.S. Pat. No. 5,245,061.
In addition, in vitro inhibition of protein farnesyltransferase may be measured by the following procedure. Rat brain protein farnesyltransferase activity is measured using an Amersham Life Science commercial scintillation proximity assay kit and substituting a biotin-K Ras B fragment (biotin-[…]Ble-Met-CO2 H), […] final concentration, for the biotin-lamin substrate provided by Amersham. The enzyme is purified according to Reiss, Y., et al., Cell, 62: 81-88 (1990), utilizing steps one through three.
The % inhibition of protein farnesyltransferase was determined for representative compounds of the invention.

Row | SMILES | % inhibition of farnesyltransferase at 1 × 10^-5 M
1 | COc1ccc(Br)c(C(=O)Nc2ccc(C(=O)N[C@@H](CCSC)C(=O)O)c(-c3ccccc3)c2)c1 [Example 754] | 40%
2 | CSCC[C@H](NC(=O)c1ccc(CNc2cccc(Oc3ccccc3)c2)cc1-c1ccccc1)C(=O)O [Example 686] | 48%
3 | CSCC[C@H](NC(=O)c1ccc(CNCC(C)(C)CN(C)C)cc1-c1ccccc1)C(=O)O [Example 639] | 44%

Same assay, conditions: 1 × 10^-6 M (Table 2)

Row | SMILES | % inhibition of farnesyltransferase at 1 × 10^-6 M
4 | CSCC[C@H](NC(=O)c1ccc(COCc2cccs2)cc1-c1ccccc1C)C(=O)[O-].[Li+] [Example 273] | 96%
5 | CSCC[C@H](NC(=O)c1ccc(COCc2ccc3ccccc3c2)cc1-c1ccccc1C)C(=O)[O-].[Li+] [Example 583] | 98%
6 | CSCC[C@H](NC(=O)c1ccc(Sc2ccc3ccccc3c2)cc1-c1ccccc1C)C(=O)O [Example 497] | 94%
7 | CSCC[C@H](NC(=O)c1ccc(COCc2ccc(CN(C)C)o2)cc1-c1ccccc1C)C(=O)O [Example 435] | 96%
8 | CSCC[C@H](NC(=O)c1ccc(CN(CCCc2ccccc2)c2ccccc2)cc1-c1ccccc1C)C(=O)O [Example 508] | 95%
9 | CSCC[C@H](NC(=O)c1cc(Cc2ccccc2)c(COCc2ccco2)cc1-c1ccccc1C)C(=O)O [Example 924] | 77%
10 | CSCC[C@H](NC(=O)c1ccc(CSCc2ccccc2)cc1-c1ccccc1C)C(=O)[O-].[Li+] [Example 554] | 96%
11 | CSCC[C@H](NC(=O)c1ccc(CN(Cc2ccccc2)c2ccccc2C(C)=O)cc1-c1ccccc1C)C(=O)O [Example 844] | 92%
12 | CSCC[C@H](NC(=O)c1ccc(CNc2ccccc2F)cc1-c1ccccc1)C(=O)O [Example 642] | 48%
13 | CSCC[C@H](NC(=O)c1ccc(NC(=O)Cc2ccccc2)cc1-c1ccccc1C)C(=O)O [Example 540] | 40%
14 | CSCC[C@H](NC(=O)c1ccc(CNc2ccccc2C(N)=O)cc1-c1ccccc1)C(=O)O [Example 644] | 54%
15 | CSCC[C@H](NC(=O)c1ccc(NC[C@@H]2CSCN2)cc1-c1ccccc1)C(=O)O.Cl [Example 166] | 97%

Same assay, conditions: 1 × 10^-7 M (Table 3)

Row | SMILES | % inhibition of farnesyltransferase at 1 × 10^-7 M
16 | CSCC[C@H](NC(=O)c1ccc(CN(CCC23CC4CC(CC(C4)C2)C3)c2ccccc2)cc1-c1ccccc1C)C(=O)O [Example 511] | 82%
17 | CSCC[C@H](NC(=O)c1ccc(CN(c2ccccc2)S(=O)(=O)c2ccccc2)cc1-c1ccccc1C)C(=O)O [Example 769] | 90%
18 | CSCC[C@H](NC(=O)c1ccc(COCCc2cccc3ccccc23)cc1-c1ccccc1C)C(=O)[O-].[Li+] [Example 592] | 93%
19 | CSCC[C@@H](C(=O)[O-])N(C)C(=O)c1ccc(COCCCC2CCCCC2)cc1-c1ccccc1C.[Li+] [Example 597] | 75%
20 | CSCC[C@H](NC(=O)c1ccc(COC(Cc2ccccc2)Cc2ccccc2)cc1-c1ccccc1C)C(=O)[O-].[Li+] [Example 522] | 93%

Same assay, conditions: 1 × 10^-8 M (Table 4)

Row | SMILES | % inhibition of farnesyltransferase at 1 × 10^-8 M
21 | CSCC[C@H](NC(=O)c1ccc(CN(c2ccccc2)S(=O)(=O)c2ccc(C(F)(F)F)cc2)cc1-c1ccccc1C)C(=O)O [Example 780] | 71%
22 | CSCC[C@H](NC(=O)c1ccc(CN[C@H](CSc2ccccc2C)CC2CCCCC2)cc1-c1ccccc1C)C(=O)O [Example 767] | 97%
23 | CCCCC(OCc1ccc(C(=O)N[C@@H](CCSC)C(=O)O)c(-c2ccccc2C)c1)c1cncs1 (stereo partly drawn) [Example 985] | 89%
24 | CCSC[C@H](CC1CCCCC1)N(C)Cc1ccc(C(=O)N[C@@H](CCSC)C(=O)O)c(-c2ccccc2C)c1 [Example 944] | 88%
25 | CSCC[C@H](NC(=O)c1ccc(CN(Cc2ccccc2)c2cncnc2)cc1-c1ccccc1C)C(=O)O [Example 836] | 95%
26 | CSCC[C@H](NC(=O)c1ccc(COCc2occc2-c2ccc(Cl)cc2)cc1-c1ccccc1C)C(=O)[O-].[Li+] [Example 827] | 77%
27 | CSCC[C@H](NC(=O)c1ccc(CO[C@@H](CC2CCCCC2)CN2CCOCC2)cc1-c1ccccc1C)C(=O)O [Example 885] | 95%
28 | CSCC[C@H](NC(=O)c1ccc(CN[C@@H](CC2CCCCC2)C(=O)N2CCCCC2)cc1-c1ccccc1C)C(=O)O [Example 887] | 92%

Same assay, conditions: read-out: % inhibition at 0.01 μM (**); Table 6, ** = 0.01 μM (footnote); title prints 0.01 mM

Row | SMILES | inhibition at 0.01 µM
29 | CSCC[C@H](NC(=O)c1ccc(CP(=O)(CCC2CCCCC2)CCC2CCCCC2)cc1-c1ccccc1C)C(=O)O [Example 1219, N-[4-(Di(2-cylohexylethyl)(oxophosphinyl)methyl)-2-(2-methylphenyl)benzoyl]methionine] | 85%

Same assay, conditions: read-out: % inhibition at 0.1 μM (*); Table 6, * = 0.1 μM (footnote); title prints 0.1 mM

Row | SMILES | inhibition at 0.1 µM
30 | CSCC[C@H](NC(=O)c1ccc(CP(C)(=O)CC2CCCCC2)cc1-c1ccccc1C)C(=O)O (stereo partly drawn) [Example 1212, N-[4-((Cylohexylmethyl)methyl(oxophosphinyl)methyl)-2-(2-methylphenyl)benzoyl]methionine] | 86%

Same assay, conditions: read-out: % inhibition of farnesyltransferase at 1 × 10^-6 M; 1 × 10^-6 M (Table 2)

Row | SMILES | inhibition at 1 µM
31 | CSCC[C@H](NC(=O)c1ccc(CCCC(=O)c2ccc3ccccc3c2)cc1-c1ccccc1C)C(=O)O [Example 473, N-[4-(4-naphth-2-ylbut-4-on-1-yl)-2-(2-methylphenyl)benzoyl]methionine lithium salt] | 96%
32 | CSCC[C@H](NC(=O)c1ccc(CN2CCC(OCc3ccccc3)C2)cc1-c1ccccc1C)C(=O)O (stereo partly drawn) [Example 988, N-[4-(3-benzyloxypyrrolidin-1-ylmethyl)-2-(2-methylphenyl)benzoyl]methionine] | 92%
33 | CSCC[C@H](NC(=O)c1ccc(C=CCc2ccccc2)cc1-c1ccccc1C)C(=O)O (mixture of isomers) [Example 469, N-[4-(3-phenylprop-1-enyl)-2-(2-methylphenyl)benzoyl]methionine (1:1 mixture of olefin isomers)] | 92%
34 | Cc1ccccc1-c1cc(CN(C2CC2)C2(CC3CCCCC3)CCC2)ccc1C(=O)N[C@@H](CCS(C)(=O)=O)C(=O)O [Example 334] | 93%
35 | Cc1ccccc1-c1cc(CN(C)C(C)(C)CC2CCCCC2)ccc1C(=O)N[C@@H](CCS(C)(=O)=O)C(=O)O [Example 314] | 97%
36 | CSCC[C@H](NC(=O)c1ccc(CN(C2CC2)C2(Cc3ccccc3)CC2)cc1-c1ccccc1C)C(=O)O [Example 323] | 98%
37 | CSCC[C@H](NC(=O)c1ccc(CN2CCN(C)CC2)cc1-c1ccccc1)C(=O)O [Example 289, [4-(4-methylpiperazinylmethyl)-2-phenylbenzoyl]methionine] | 23%
38 | CSCC[C@H](NC(=O)c1ccc(CCc2cccc3ccccc23)cc1-c1ccccc1C)C(=O)O [Example 467, N-[4-(2-naphth-1-ylethyl)-2-(2-methylphenyl)benzoyl]methionine lithium salt] | 97%

Same assay, conditions: read-out: % inhibition of farnesyltransferase at 1 × 10^-7 M; 1 × 10^-7 M (Table 3)

Row | SMILES | inhibition at 0.1 µM
39 | CSCC[C@H](NC(=O)c1ccc(CN2CCC[C@@H]2COCc2ccccc2)cc1-c1ccccc1C)C(=O)O [Example 993, N-[4-(2-benzyloxymethylpyrrolidin-1-ylmethyl)-2-(2-methylphenyl)benzoyl]methionine] | 90%
